Consider 17 compounds from patent US5665586A, “Protease from Streptomyces fradiae” (Shionogi & Co., Ltd., priority 1992, dated 1997).

For assay [1], the target named is T1, SFase (Streptomyces fradiae, UniProt Q03424). The assay is described as follows: Effect of inhibitors on SFase (residual activity, substrate Z-Phe-Leu-Glu-pNA). It counts as biochemical.
The target in assay [2] is T1, SFase. Briefly: Substrate specificity of SFase on synthetic pNA substrates (p-nitroaniline release, A410 nm). It counts as biochemical. As to conditions: 50 mM Tris-HCl, 2 mM CaCl2, pH 7.5, 25° C. The method, then:
1. […] The present enzyme was added thereto to cause a reaction at a temperature of 25° C. By measuring the absorbance (410 nm) of p-nitroaniline released through the enzymatic reaction into the reaction solution, the amount (A410 nm) of p-nitroaniline released per mg each substrate per 1 minute was calculated.

The mark [3] stands for this setting: inhibitor 0.5 mM, preincubation 37° C., 1 hour, enzyme 1.0 μg/ml, 0.2 mM Z-Phe-Leu-Glu-pNA, pH 7.5, 25° C., read-out: Residual Activity (%).
Where [4] appears, read: pH 7.5, read-out: Residual Activity (%).

SMILES strings stand for the structures. Where two headings read alike, the source gives them in different places. Where a SMILES comes first, the peptide text is derived from it. The star is where a group is joined. pNA = O=[N+]([O-])c1ccc(N*)cc1; Cbz = O=C(OCc1ccccc1)*; Boc = CC(C)(C)OC(=O)*; CH2Cl = ClC*

T1 sequence (Q03424 171-357): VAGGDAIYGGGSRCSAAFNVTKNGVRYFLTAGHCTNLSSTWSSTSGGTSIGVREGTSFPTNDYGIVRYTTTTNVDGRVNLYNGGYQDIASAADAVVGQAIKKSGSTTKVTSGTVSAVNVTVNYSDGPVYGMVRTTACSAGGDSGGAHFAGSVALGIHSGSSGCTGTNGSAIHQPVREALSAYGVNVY

For the compound `C[C@H](NC(=O)[C@H](C)NC(=O)[C@H](C)NC(=O)OC(C)(C)C)C(=O)CCl` [Boc--Ala--Ala--Ala--CK], the remaining activity at 500 µM at SFase [1] (setting [3]) was determined as 102%. As for `C[C@H](NC(=O)OC(C)(C)C)C(=O)N[C@@H](C)C(=O)N[C@@H](CC(=O)O)C(=O)Nc1ccc([N+](=O)[O-])cc1` [Boc--Ala--Ala--Asp--pNA] (Boc-Ala-Ala-Asp-pNA), on SFase [2] (substrate 0.20 mM, DMF 2.0%), the “amount (A410 nm) of p-nitroaniline released per mg per 1 minute” value turned out to be 14.3 A 410 nm /mg/min.

On to `C[C@H](NC(=O)OC(C)(C)C)C(=O)N[C@@H](C)C(=O)N[C@@H](CCC(=O)O)C(=O)Nc1ccc([N+](=O)[O-])cc1` [Boc--Ala--Ala--Glu--pNA] (Boc-Ala-Ala-Glu-pNA), for which the “amount (A410 nm) of p-nitroaniline released per mg per 1 minute” value on SFase [2] (substrate 0.20 mM, DMF 2.0%) was 126.2 A 410 nm /mg/min. As for `CC(C)C[C@H](NC(=O)[C@H](Cc1ccccc1)NC(=O)OC(C)(C)C)C(=O)N[C@@H](CCC(=O)O)C(=O)CCl` [Boc-Phe-Leu-Glu-chloromethylketone] (Boc-Phe-Leu-Glu-CH2Cl), on SFase [1] (Table 2), the “inhibition of SFase (in words)” value is recorded as “completely inhibited”. As to `N=C(N)NCCC[C@H](NC(=O)c1ccccc1)C(=O)Nc1ccc([N+](=O)[O-])cc1` [Bz--Arg--pNA], on SFase [2] (substrate 0.50 mM, DMSO 1.0%), the “amount (A410 nm) of p-nitroaniline released per mg per 1 minute” value is given as 0 A 410 nm /mg/min. On to `O=C(N[C@@H](Cc1ccc(O)cc1)C(=O)Nc1ccc([N+](=O)[O-])cc1)c1ccccc1` [Bz--Tyr--pNA], for which, on SFase [2] (substrate 0.02 mM, DMF 2.0%), the “amount (A410 nm) of p-nitroaniline released per mg per 1 minute” value is 0 A 410 nm /mg/min. For `O=C(O)CN(CCN(CC(=O)O)CC(=O)O)CC(=O)O` [EDTA, ethylenediaminetetraacetic acid], the “inhibition of SFase (in words)” value against SFase [1] was “not inhibited”. At SFase [1] (setting [4]), the remaining activity at 100 µM is 110%, the remaining activity at 1000 µM worked out at 113% and the remaining activity at 10000 µM is 126%. `CC(C)C[C@H](N)C(=O)Nc1ccc([N+](=O)[O-])cc1` [Leu--pNA]: the “amount (A410 nm) of p-nitroaniline released per mg per 1 minute” value on SFase [2] (substrate 2.00 mM, no solvent) is recorded as 0 A 410 nm /mg/min. `c1cnc2c(c1)ccc1cccnc12` [OP, o-phenanthroline]: the “inhibition of SFase (in words)” value against SFase [1] (Table 2) is reported as “not inhibited”. Also, at SFase [1] (inhibitor 0.1 mM, preincubation 37° C., 1 hour, enzyme 1.0 μg/ml, 0.2 mM Z-Phe-Leu-Glu-pNA, pH 7.5, 25° C., read-out: Residual Activity (%)), the remaining activity at 100 µM was 106%. The remaining activity at 1000 µM on SFase [1] (inhibitor 1.0 mM, preincubation 37° C., 1 hour, enzyme 1.0 μg/ml, 0.2 mM Z-Phe-Leu-Glu-pNA, pH 7.5, 25° C., read-out: Residual Activity (%)) was determined as 108%. Also, at SFase [1] (inhibitor 10.0 mM, preincubation 37° C., 1 hour, enzyme 1.0 μg/ml, 0.2 mM Z-Phe-Leu-Glu-pNA, pH 7.5, 25° C., read-out: Residual Activity (%)), the remaining activity at 10000 µM turned out to be 104%. In the case of `C[C@H](NC(=O)CCC(=O)O)C(=O)N[C@@H](C)C(=O)N[C@@H](C)C(=O)Nc1ccc([N+](=O)[O-])cc1` [Suc--Ala--Ala--Ala--pNA], at SFase [2] (substrate 0.20 mM, no solvent), the “amount (A410 nm) of p-nitroaniline released per mg per 1 minute” value turned out to be 0 A 410 nm /mg/min.

As for `Cc1ccc(S(=O)(=O)N[C@@H](CCCCN)C(=O)CCl)cc1` [TLCK, Tosyl-Lys-chloromethylketone], the “inhibition of SFase (in words)” value at SFase [1] was “inhibited by neither”. Further, on SFase [1] (setting [4]), the remaining activity at 500 µM came out at 112%. For `Cc1ccc(S(=O)(=O)N[C@@H](Cc2ccccc2)C(=O)CCl)cc1` [TPCK, Tosyl-Phe-chloromethylketone], the “inhibition of SFase (in words)” value at SFase [1] (Table 2) is “inhibited by neither”. In addition, the remaining activity at 500 µM at SFase [1] (setting [3]) was 101%.

`CC(C)C[C@H](NC(=O)[C@H](C)NC(=O)[C@H](C)NC(=O)OCc1ccccc1)C(=O)Nc1ccc([N+](=O)[O-])cc1` [Z--Ala--Ala--Leu--pNA] (Cbz-Ala-Ala-Leu-pNA): the “amount (A410 nm) of p-nitroaniline released per mg per 1 minute” value on SFase [2] (substrate 0.125 mM, DMF 5.0%) is listed as 0 A 410 nm /mg/min. Turning to `O=C(CNC(=O)OCc1ccccc1)N[C@@H](CO)C(=O)Nc1ccc([N+](=O)[O-])cc1` [Z--Gly--Ser--pNA] (Cbz-Gly-Ser-pNA), the “amount (A410 nm) of p-nitroaniline released per mg per 1 minute” value at SFase [2] (substrate 0.20 mM, DMF 2.0%) came out at 0 A 410 nm /mg/min. As for `CC(C)C[C@H](NC(=O)[C@H](Cc1ccccc1)NC(=O)OCc1ccccc1)C(=O)N[C@@H](CCC(=O)O)C(=O)CCl` [Z--Phe--Leu--Glu--CK] (Cbz-Phe-Leu-Glu-CH2Cl), the remaining activity at 500 µM at SFase [1] (setting [3]) is 0%. As to `CC(C)C[C@H](NC(=O)[C@H](Cc1ccccc1)NC(=O)OCc1ccccc1)C(=O)N[C@@H](CCC(=O)O)C(=O)Nc1ccc([N+](=O)[O-])cc1` [Z--Phe--Leu--Glu--pNA, Z-Phe-Leu-Glu-pNA] (Cbz-Phe-Leu-Glu-pNA), the “amount (A410 nm) of p-nitroaniline released per mg per 1 minute” value on SFase [2] (substrate 0.20 mM, DMF 0.2%) turned out to be 319.1 A 410 nm /mg/min. Regarding `O=C(N[C@@H](Cc1c[nH]c2ccccc12)C(=O)Nc1ccc([N+](=O)[O-])cc1)OCc1ccccc1` [Z--Trp--pNA], the “amount (A410 nm) of p-nitroaniline released per mg per 1 minute” value at SFase [2] (substrate 0.20 mM, DMF 2.0%) turned out to be 0 A 410 nm /mg/min.
